One data set addresses T1, mushroom tyrosinase (Agaricus bisporus, UniProt C7FF04).
T1 construct: purchased Sigma-Aldrich
Briefly: Kinetic studies on the inhibition of mushroom tyrosinase (Lineweaver–Burk and Dixon plots). The conditions noted are these: for Inhibition type: Lineweaver–Burk plots; for Ki: Dixon plot; for Vmax: regardless of 1b concentration. In kind it is biochemical. As for the experimental part:
Lineweaver–Burk plots of compound 1b were acquired in the presence of L-tyrosine or L-DOPA as substrates. In brief, 10 µL aliquots of DMSO containing compound 1b (final concentrations: 0, 0.1, 0.2, or 0.4 µM in L-tyrosine, and 0, 1, 2, or 4 μM in L-DOPA) were added to the wells of a 96-well plate containing 170 µL of an aqueous solution (final concentrations: 1.0, 2.0, 4.0, 8.0, or 16.0 mM) of L-tyrosine or L-DOPA, sodium phosphate buffer (final concentration: 14.7 mM, pH 6.5), and 20 µL of mushroom tyrosinase (200 units/mL). Initial rates of dopachrome production were determined by measuring the increases in optical density at 475 nm (ΔOD475/min) using a microplate reader (VersaMax^TM, Molecular Devices, Sunnyvale, CA, USA). Maximal velocity (Vmax) was obtained from Lineweaver–Burk plots obtained using five different L-tyrosine or L-DOPA concentrations. Modes of tyrosinase inhibition were determined using plot convergence points.

The subject of data set [1] is B16F10 murine melanoma cells. The data set can be described thus: Extracellular melanin content (melanin release into medium) in α-MSH/IBMX-stimulated cells. In kind it is cell-based. As for the experimental part: The anti-melanogenic activities of 1a and 1b were determined using a standard melanin content assay, with minor changes. Briefly, B16F10 cells were seeded in the wells of a 6-well plate at a density of 1 × 10^5 cells/well, and allowed to adhere to well bottoms over 24 h under the conditions used for cell culture (Section 2.3.5). […] Absorbances of culture media at 405 nm were used to determine extracellular melanin contents.

A short description of data set [2]: DPPH radical scavenging activity assay. The conditions noted are these: compound 1.0 mM, 30 min in the dark, 517 nm. As for the experimental part:
The DPPH (2,2-diphenyl-1-picrylhydrazyl) scavenging activities of synthesized compounds 1a–1p were investigated as previously described, with minor modifications. A dimethyl sulfoxide solution (20 µL) containing 10 mM of each compound was mixed with DPPH methanol solution (0.2 mM, 180 µL) in the wells of a 96-well plate, and placed in the dark for 30 min at room temperature. At 517 nm, optical densities were measured using a microplate reader (VersaMax^TM, Molecular Devices, Sunnyvale, CA, USA). The DPPH radical scavenging ability of the 2-arylbenzothiazole derivatives was compared with that of L-ascorbic acid, the positive control. All experiments were performed independently in triplicate.

Entries after “also recorded” stand apart in the source; their conditions may differ.

T1 sequence (C7FF04 1-392): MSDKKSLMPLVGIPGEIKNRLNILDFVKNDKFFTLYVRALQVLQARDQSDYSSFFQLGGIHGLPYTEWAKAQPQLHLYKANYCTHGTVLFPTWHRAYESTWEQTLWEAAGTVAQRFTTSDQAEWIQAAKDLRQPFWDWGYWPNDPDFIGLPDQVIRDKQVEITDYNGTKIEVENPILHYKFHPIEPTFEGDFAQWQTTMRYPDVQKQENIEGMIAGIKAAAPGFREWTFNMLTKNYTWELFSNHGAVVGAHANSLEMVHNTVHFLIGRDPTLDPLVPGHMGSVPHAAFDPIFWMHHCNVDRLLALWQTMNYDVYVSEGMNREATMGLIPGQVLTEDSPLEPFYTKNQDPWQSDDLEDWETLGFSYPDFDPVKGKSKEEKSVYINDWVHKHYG

For orientation: Ki means the dissociation constant of the complex between target and ligand, obtained from inhibition or displacement. The Vmax is the rate approached at saturating substrate. Broadly, the melting point is the temperature, or range, at which the solid turns liquid. Regarding `Oc1ccc(-c2nc3cc(C(F)(F)F)ccc3s2)c(O)c1` [Compound 1b, 4-(5-(Trifluoromethyl)benzo[d]thiazol-2-yl)benzene-1,3-diol], the melting point was 236.2 to 238.2 °C. The Inhibition type entry at mushroom tyrosinase (L-DOPA as substrate) is given as “competitive inhibitor; also recorded: L-DOPA (Inhibition Type ^a: Competitive)”. On mushroom tyrosinase (L-DOPA), affinity was put at a Ki of 2.45 µM and the maximal velocity (Vmax) is 0.00497 mM/min. Besides, the Inhibition type result at mushroom tyrosinase (L-tyrosine as substrate) was “competitive inhibitor; also recorded: L-Tyrosine (Inhibition Type ^a: Competitive)”. Moreover, at mushroom tyrosinase (L-tyrosine), the affinity corresponds to a Ki of 0.0376 µM and the “Vmax” value stood at 0.0101 mM/min. Besides, the melanin release result in data set [1] (20 µM) is given as “reduced melanin release to control levels”. In data set [1] (5, 10, 20 µM, α-MSH (1 µM) + IBMX (200 µM), 48 h), the “effect on melanin content in media” value is “concentration-dependently and significantly reduced melanin content increases”. Besides, the “DPPH radical scavenging activity” value in data set [2] is “moderate DPPH radical scavenging efficacy”.

(Values after article PMC9311798, “A Novel Class of Potent Anti-Tyrosinase Compounds with Antioxidant Activity, 2-(Substituted phenyl)-5-(trifluoromethyl)benzo[d]thiazoles: In Vitro and In Silico Insights” (Antioxidants, 2022).)
